Laboratory results taken from patent US20230414778A1, “COMBINATION OF ANTIBODY-DRUG CONJUGATE WITH ANTI-SIRPalpha ANTIBODY” (DAIICHI SANKYO COMPANY, LIMITED, priority 2020, published 2023).

Legend:
[1] = test system: mouse colorectal cancer cell line CT26.WT; test: ICD induction evaluation (in vitro): Calreticulin (CRT) on cell surface by flow cytometry; assay type: cell-based; details: CT26.WT after 24 hours; compound (A) 4 μM, MTX 1 μM; adjusted MFI
Experimental: In cancer cells treated with different compounds, the expression level of Calreticulin (CRT), which serves as an index of Immunogenic cell death (ICD), was measured. Cells of mouse colorectal cancer cell line CT26.WT were seeded in a 6-well plate and cultured overnight. After the supernatant was removed, the cells were washed twice with PBS. In RPMI1640 culture solution containing 10% FBS (R10), compound (A), (4 μM) or Mitoxantrone (MTX) (1 μM) was added. As a control, DMSO was added in the same amount as that of compound (A) (R10-DMSO). After completion of drug treatment, CT26.WT cells were collected and suspended in PBS, and then, seeded in a 96-well (round bottom) plate at 1×10^6 cells/well. […] The expression level of CRT on the cancer cells was measured by flow cytometry (FACS CantoII: manufactured by Becton, Dickinson and Company). Data were analyzed by FlowJo (manufactured by TreeStar Inc). Note that, LIVE/DEAD Fixable Violet-positive cells were determined as dead cells and excluded from the analysis. The mean fluorescence intensity (MFI) of CRT was calculated. The value, which was obtained by subtracting the MFI of the cells treated with Isotype control from the MFI of stained cells, was determined as the adjusted MFI. […] The results satisfying P<0.05 (two-sided test) were determined as being significant (***: P<0.001, **: P<0.01).

[2] = test system: CT26.WT-reactive T cells in mouse spleen cells; test: ELISPOT analysis of IFNγ-producing spleen cells; assay type: in vivo
Experimental: The number of CT26.WT-reactive T cells in mouse spleen cells was determined by Murine IFNγ Single-Color Enzymatic ELISPOT Assay (manufactured by […] TECHNOLOGY LIMITED), more specifically, counting of the number of IFNγ spots produced from individual spleen cells. From each of the mice used in Example 3, the spleen was harvested and the number of spleen cells was adjusted to be 1.0×10^6 cells/mL by use of CTL test medium. CT26.WT cells were treated with 10 μg/mL mitomycin C for 2 hours and washed. Thereafter, the cells were collected, adjusted to be 1.0×10^6 cells/mL by CTL test medium, and used as an antigen. The spleen cells and the antigen were added each in an amount of 100 μL/well in a PVDF-membrane plate pre-coated with an anti-IFNγ antibody and co-cultured at 37° C. for 24 hours. Thereafter, the color was developed using the attached antibody and coloring reagent and the number of IFNγ-producing spleen cells was determined. Comparison between the NCD cell inoculation group and compound (A) or MTX treatment group was made in accordance with the Wilcoxon rank sum test. P value was expressed to four decimal places and the results satisfying P<0.05 (two-sided test) were determined as being significant.

[3] = test system: spleen cells (CD4-positive / CD8-positive T cells, Tcm); test: FCM analysis of spleen cells (T cell populations); assay type: in vivo, mouse; details: for ratio occupied by Tcm in CD4-positive T cells compared to NCD treatment group: PBS administration (FIG. 29A); for ratio occupied by Tcm in CD8-positive T cells compared to NCD treatment group: PBS administration (FIG. 29B); for ratio occupied by CD4-positive T cells in the whole cells / ratio occupied by CD8-positive T cells in the whole cells: plus anti-SIRPα antibody (5C12) (FIG. 30C)
Experimental: From each of the mice used in Example 3, the spleen was excised out and spleen cells were prepared by use of PBS and seeded in a 96-well (round bottom) plate at 1×10^6 cells/well. After centrifugation was carried out at 1200 rpm for 3 minutes, the supernatant was removed. […] (manufactured by Biolegend, Inc.) diluted to 1/20 with PBS was added up to 100 μL/well. After standing at room temperature for 30 minutes, centrifugation was carried out at 1200 rpm for 3 minutes. The supernatant was removed, and primary-antibody solutions (FITC anti-CD36 antibody, PerCP anti-CD4 antibody, PE/Cy7 anti-CD8a antibody, APC anti-CD62L antibody, and APC/Cy7 anti-CD44 antibody: all manufactured by Biolegend, Inc.) were diluted with FACS buffer (1 mM EDTA, 5% FBS) and added in an amount of 50 μL/well. After standing in a dark place at 4° C. for 25 minutes, centrifugation was carried out at 1200 rpm for 3 minutes, and then the supernatant was removed. Washing was carried out twice with FACS buffer (200 μL/wells). After centrifugation, the supernatant was removed. A suspension was made with Stabilizing Fixative (manufactured by Becton, Dickinson and Company) and allowed to stand at room temperature for 10 minutes. Measurement was carried out by flow cytometry (FACS CantoII: manufactured by Becton, Dickinson and Company). Data were analyzed by use of FlowJo (manufactured by TreeStar Inc). Comparison between the NCD group and each of the drug treatment groups, or comparison among the PBS administration group, the anti-SIRPα antibody group and an anti-CD47 antibody group in each of the cell treatment groups was made in accordance with the Dunnett's multiple comparison. P value was expressed to four decimal places and the results satisfying P<0.05 (two-sided test) were determined as being significant.
Note that individual populations in the CD4-positive T cells and CD8-positive T cells were identified in the following conditions.
Tcm: central memory T cells [CD44(+) CD62L(+)]

[4] = test system: cells treated with compound (A); details: Clin. Invest. 2020: 130(1): 374-388; cited from earlier work
[5] = Clin. Invest. 2020: 130(1): 374-388; cited from earlier work
[6] = drug-treated CT26.WT cells inoculated, anti-SIRPα antibody (5C12) administration
[7] = plus anti-CD47 antibody (MIAP410) (FIG. 30A)
[8] = plus anti-CD47 antibody (MIAP410) (FIG. 30B)
[9] = plus anti-SIRPα antibody (5C12) (FIG. 30A)
[10] = plus anti-SIRPα antibody (5C12) (FIG. 30B)

| SMILES | CRT expression on cell surface relative to control group [1] | antigen specific T cell induction compared to the MTX treatment group ([2]; ELISPOT, spleen cells) | number of IFNγ-producing spleen cells compared to NCD_PBS ([2]; drug-treated CT26.WT cells inoculated, PBS administration) | number of IFNγ-producing spleen cells compared to NCD_PBS [2, 6] | number of IFNγ-producing spleen cells compared to compound (A) PBS group [2, 6] | ratio occupied by Tcm in CD4-positive T cells compared to NCD treatment group [3] | ratio occupied by Tcm in CD8-positive T cells compared to NCD treatment group [3] | ratio occupied by Tcm in CD4-positive T cells compared to the _PBS group of the same drug [3, 7] | ratio occupied by Tcm in CD8-positive T cells compared to the _PBS group of the same drug [3, 8] | ratio occupied by Tcm in CD4-positive T cells compared to the _PBS group of the same drug [3, 9] | ratio occupied by Tcm in CD8-positive T cells compared to the _PBS group of the same drug [3, 10] | ratio occupied by CD4-positive T cells in the whole cells [3] | ratio occupied by CD8-positive T cells in the whole cells [3] | HMGB1 release from treated cells [4] | antitumor effect by vaccination of the treated cells [5] |
| --- | --- | --- | --- | --- | --- | --- | --- | --- | --- | --- | --- | --- | --- | --- | --- |
| CC[C@@]1(O)C(=O)OCc2c1cc1n(c2=O)Cc2c-1nc1cc(F)c(C)c3c1c2[C@@H](NC(=O)CO)CC3 [compound (A)] | about 12.7 times | tendency to further enhance | tendency to increase | significantly increased | significantly increased | significantly increased | significantly increased | significantly decreased | significantly decreased | tendency to increase | substantially the same value | significantly increased | tendency to increase | released | limited antitumor effect |
| O=C1c2c(O)ccc(O)c2C(=O)c2c(NCCNCCO)ccc(NCCNCCO)c21 [MTX, Mitoxantrone, reference compound] | about 2.6 times |  |  |  |  | significantly increased | significantly increased | tendency to increase | tendency to increase | tendency to increase | significantly increased | tendency to increase | significantly increased |  |  |
